Measurements reported in patent US20220305019A1, “PARAXANTHINE-BASED COMPOSITIONS FOR PROMOTING WEIGHT LOSS” (Ingenious Ingredients, LP, priority 2021, published 2022).

Experiments:
Assay type in all cases: in vivo, human
[1] = Appetite visual analog scale (VAS) after oral ingestion, crossover, two participants; conditions: 200 mg CA; for Appetite Visual Analog Scale MEAN: mean 30-180 min
Protocol: All supplements were orally ingested with 8 fluid ounces of cold tap water. The order of administration for all interventions was randomized using a random allocation software to ensure randomization and to avoid order effects. […] All study visits took place between 0600-1000 hours. At least 72 hours of rest will take place between each condition.

[2] = Confidence visual analog scale (VAS) after oral ingestion, crossover, two participants; set-up: Confidence (Visual Analog Scale) / Confidence VAS MEAN: scale not given here; conditions: for Confidence (Visual Analog Scale) / Confidence VAS MEAN / Confidence VAS mean Δ vs. 100 mg PX / Confidence VAS mean Δ vs. PLA: 200 mg Caffeine
Protocol: (§1) All supplements were orally ingested with 8 fluid ounces of cold tap water. The order of administration for all interventions was randomized using a random allocation software to ensure randomization and to avoid order effects. After ingestion, participants completed all assessments in an identical fashion 30, 60, 90, 120, and 180 minutes after ingestion of their assigned supplement. All study visits took place between 0600-1000 hours. At least 72 hours of rest took place between each condition.

[3] = Swagger visual analog scale (VAS) after oral ingestion, crossover, two participants; conditions: 200 mg Caffeine
Protocol: as §1

Cn1c(=O)c2c(ncn2C)n(C)c1=O [CA, caffeine, reference compound]
reduction in appetite compared to placebo [1]: 2.4%
Appetite Visual Analog Scale ([1]; 30 min, person one): 70
Appetite Visual Analog Scale ([1]; 30 min, person two): 50
Appetite Visual Analog Scale ([1]; 60 min, person one): 100
Appetite Visual Analog Scale ([1]; 60 min, person two): 60
Appetite Visual Analog Scale ([1]; 90 min, person one): 100
Appetite Visual Analog Scale ([1]; 90 min, person two): 61
Appetite Visual Analog Scale ([1]; 120 min, person one): 100
Appetite Visual Analog Scale ([1]; 120 min, person two): 65
Appetite Visual Analog Scale ([1]; 180 min, person one): 100
Appetite Visual Analog Scale ([1]; 180 min, person two): 70
Appetite Visual Analog Scale MEAN ([1]; Average of both): 77.6
Appetite Visual Analog Scale MEAN ([1]; person one): 94.0
Appetite Visual Analog Scale MEAN ([1]; person two): 61.2
Appetite VAS mean Δ vs. 100 mg PX ([1]; person one): +65.0
Appetite VAS mean Δ vs. 300 mg PX ([1]; person one): +66.8
Appetite VAS mean Δ vs. PLA ([1]; person one): −0.2
Appetite VAS mean Δ vs. 100 mg PX ([1]; person two): −12.8
Appetite VAS mean Δ vs. 300 mg PX ([1]; person two): −2.8
Appetite VAS mean Δ vs. PLA ([1]; person two): −12.0
Confidence (Visual Analog Scale) ([2]; 30 min, person one): 80
Confidence (Visual Analog Scale) ([2]; 30 min, person two): 74
Confidence (Visual Analog Scale) ([2]; 60 min, person one): 91
Confidence (Visual Analog Scale) ([2]; 60 min, person two): 76
Confidence (Visual Analog Scale) ([2]; 90 min, person one): 71
Confidence (Visual Analog Scale) ([2]; 90 min, person two): 66
Confidence (Visual Analog Scale) ([2]; 120 min, person one): 80
Confidence (Visual Analog Scale) ([2]; 120 min, person two): 70
Confidence (Visual Analog Scale) ([2]; 180 min, person one): 90
Confidence (Visual Analog Scale) ([2]; 180 min, person two): 65
Confidence VAS MEAN ([2]; Average of both): 76.3
Confidence VAS MEAN ([2]; person one): 82.4
Confidence VAS mean Δ vs. 100 mg PX ([2]; person one): +0.4
Confidence VAS mean Δ vs. PLA ([2]; person one): +1
Confidence VAS MEAN ([2]; person two): 70.2
Confidence VAS mean Δ vs. 100 mg PX ([2]; person two): +0.2
Confidence VAS mean Δ vs. PLA ([2]; person two): −0.8
effect on confidence ([2]; 200 mg of CA): failed to increase confidence
Swagger (Visual Analog Scale) ([3]; 30 min, person one): 64
Swagger (Visual Analog Scale) ([3]; 30 min, person two): 65
Swagger (Visual Analog Scale) ([3]; 60 min, person one): 56
Swagger (Visual Analog Scale) ([3]; 60 min, person two): 62
Swagger (Visual Analog Scale) ([3]; 90 min, person one): 51
Swagger (Visual Analog Scale) ([3]; 90 min, person two): 62
Swagger (Visual Analog Scale) ([3]; 120 min, person one): 61
Swagger (Visual Analog Scale) ([3]; 120 min, person two): 59
Swagger (Visual Analog Scale) ([3]; 180 min, person one): 44
Swagger (Visual Analog Scale) ([3]; 180 min, person two): 69
Swagger VAS mean Δ vs. 100 mg PX ([3]; person one): −31.0
Swagger VAS mean Δ vs. PLA ([3]; person one): −23.4
Swagger VAS MEAN ([3]; person two): 63.4
Swagger VAS mean Δ vs. 100 mg PX ([3]; person two): −10.0
Swagger VAS mean Δ vs. PLA ([3]; person two): +10.0
